{
  "source": "PubChem BioAssay AID1919016",
  "about": "(Molecular Pharmacology Branch, DTP, NCI, 2023)",
  "system": "NCI-H196 complex spheroid growth, percent test/control",
  "experiment": "Anticancer human tumor NCI-H196 cell line growth inhibition [AhR];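 also: seven days of drug exposure starting three days after plating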;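 as to viability, T/C: 100% = DMSO vehicle control wells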",
  "details": "for IC50: curve of first compound; for viability, T/C: stronger effect = lower value",
  "summary_of_the_method": "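Complex tumor spheroids co-cultured with HUVEC and human MSC stroma; AhR antagonists tested in combination with standard-of-care and investigational agents. Top concentration at or near clinical Cmax (else 10 microM), half-log dilutions; growth expressed as percent test/control.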",
  "data": [
    {"smiles": "CC(C)c1c(-c2ccccc2)nc2c(C#N)c[nH]n2c1=O", "note": "+ Cc1cncc(-c2nc(NCCc3c[nH]c4ccccc34)c3ncn(C(C)C)c3n2)c1", "values": [
      {"measurement": "IC50", "setting": "second compound 0.1 µM", "value": "> 10", "unit": "µM"},
      {"measurement": "IC50", "setting": "second compound 0.316 µM", "value": "> 10", "unit": "µM"},
      {"measurement": "IC50", "setting": "second compound 1 µM", "value": "> 10", "unit": "µM"},
      {"measurement": "IC50", "setting": "second compound 3.16 µM", "value": "> 10", "unit": "µM"},
      {"measurement": "IC50", "setting": "second compound 10 µM", "value": "> 10", "unit": "µM"},
      {"measurement": "viability, T/C", "setting": "second compound 0.1 µM, first compound 0.0316 µM", "value": 107, "unit": "%"},
      {"measurement": "viability, T/C", "setting": "second compound 0.1 µM, first compound 0.1 µM", "value": 110, "unit": "%"},
      {"measurement": "viability, T/C", "setting": "second compound 0.1 µM, first compound 0.316 µM", "value": 105, "unit": "%"},
      {"measurement": "viability, T/C", "setting": "second compound 0.1 µM, first compound 1 µM", "value": 100, "unit": "%"},
      {"measurement": "viability, T/C", "setting": "second compound 0.1 µM, first compound 3.16 µM", "value": 117, "unit": "%"},
      {"measurement": "viability, T/C", "setting": "second compound 0.1 µM, first compound 10 µM", "value": 106, "unit": "%"},
      {"measurement": "viability, T/C", "setting": "second compound 0.316 µM, first compound 0.0316 µM", "value": 103, "unit": "%"},
      {"measurement": "viability, T/C", "setting": "second compound 0.316 µM, first compound 0.1 µM", "value": 120, "unit": "%"},
      {"measurement": "viability, T/C", "setting": "second compound 0.316 µM, first compound 0.316 µM", "value": 113, "unit": "%"},
      {"measurement": "viability, T/C", "setting": "second compound 0.316 µM, first compound 1 µM", "value": 109, "unit": "%"},
      {"measurement": "viability, T/C", "setting": "second compound 0.316 µM, first compound 3.16 µM", "value": 113, "unit": "%"},
      {"measurement": "viability, T/C", "setting": "second compound 0.316 µM, first compound 10 µM", "value": 107, "unit": "%"},
      {"measurement": "viability, T/C", "setting": "second compound 1 µM, first compound 0.0316 µM", "value": 120, "unit": "%"},
      {"measurement": "viability, T/C", "setting": "second compound 1 µM, first compound 0.1 µM", "value": 112, "unit": "%"},
      {"measurement": "viability, T/C", "setting": "second compound 1 µM, first compound 0.316 µM", "value": 115, "unit": "%"},
      {"measurement": "viability, T/C", "setting": "second compound 1 µM, first compound 1 µM", "value": 103, "unit": "%"},
      {"measurement": "viability, T/C", "setting": "second compound 1 µM, first compound 3.16 µM", "value": 112, "unit": "%"},
      {"measurement": "viability, T/C", "setting": "second compound 1 µM, first compound 10 µM", "value": 101, "unit": "%"},
      {"measurement": "viability, T/C", "setting": "second compound 3.16 µM, first compound 0.0316 µM", "value": 116, "unit": "%"},
      {"measurement": "viability, T/C", "setting": "second compound 3.16 µM, first compound 0.1 µM", "value": 117, "unit": "%"},
      {"measurement": "viability, T/C", "setting": "second compound 3.16 µM, first compound 0.316 µM", "value": 119, "unit": "%"},
      {"measurement": "viability, T/C", "setting": "second compound 3.16 µM, first compound 1 µM", "value": 102, "unit": "%"},
      {"measurement": "viability, T/C", "setting": "second compound 3.16 µM, first compound 3.16 µM", "value": 115, "unit": "%"},
      {"measurement": "viability, T/C", "setting": "second compound 3.16 µM, first compound 10 µM", "value": 112, "unit": "%"},
      {"measurement": "viability, T/C", "setting": "second compound 10 µM, first compound 0.0316 µM", "value": 75.9, "unit": "%"},
      {"measurement": "viability, T/C", "setting": "second compound 10 µM, first compound 0.1 µM", "value": 86.7, "unit": "%"},
      {"measurement": "viability, T/C", "setting": "second compound 10 µM, first compound 0.316 µM", "value": 89.5, "unit": "%"},
      {"measurement": "viability, T/C", "setting": "second compound 10 µM, first compound 1 µM", "value": 86.9, "unit": "%"},
      {"measurement": "viability, T/C", "setting": "second compound 10 µM, first compound 3.16 µM", "value": 80.7, "unit": "%"},
      {"measurement": "viability, T/C", "setting": "second compound 10 µM, first compound 10 µM", "value": 80.7, "unit": "%"}
    ]}
  ]
}
